From PMC11795524, “Melanin-Binding-Based Discovery of Topically Instilled Carbonic Anhydrase Inhibitors for Targeted Delivery and Prolonged Action in the Eye” (Molecular Pharmaceutics, 2025)

How the values were obtained:
[1] = In vitro melanin binding by microscale thermophoresis / initial fluorescence (Monolith NT.115 pico)
Description: Melanin binding of the CAI-II compounds was studied with a Monolith NT.115 pico (NanoTemper Technologies GmbH, Munich, Germany) device using the method of […] et al. […] Otherwise, normalized fluorescence signals and the ratio of relative fluorescence after heating (MST mode) were used. The MST software was used in expert mode to allow heating for 30 s. […] As ligand autofluorescence may interfere with the assay, their autofluorescence values were pretested with the detector used in experiment (nanoblue or pico-red). Fluorescence of the ligand should be below 20% of melanin fluorescence. Sample aggregation and adsorption to the capillaries were used also as exclusion criteria.

[2] = Ocular pharmacokinetics in albino rats (iris-ciliary body, 3H-A01); assay type: in vivo, rat
Description: Eight albino rats (RccHan/Wist) and 18 pigmented rats (HsdOla/LH) were obtained from Envigo Laboratories B.V. (The Netherlands) and were used in pharmacokinetic experiments. Additional 13 albino and 13 pigmented rats were used in generation of the analytical standards. Young adult (3–4 months; 340–445 g) rats were used.
To conduct the pharmacokinetic study, bromo-containing CAI A15 (molecular structure presented in Table 1) was conveniently converted into [^3H]-A01 through catalytic dehalogenation in tritium gas. A15 (3.05 mg, 8.2 μmol) was dissolved in dimethylformamide (0.3 mL) and exposed to 99 mbar of tritium gas in a tritium manifold system for 1.5 h in the presence of 10% palladium on carbon (0.57 mg). Following filtration, the reaction mixture underwent double lyophilization with 1 mL ethanol to eliminate labile tritium. […] The crude material was purified via high-performance liquid chromatography, employing a Reprosil-Pur C18-HD column (250 × 10 mm, 5 μm), with a mobile phase comprising 40% acetonitrile in 50 mM ammonium hydrogen carbonate. Purified fractions were subsequently combined, subjected to solid-phase extraction, and eluted with ethanol. Radiochemical analysis indicated a purity exceeding 97%, with a molar activity of 0.29 TBq/mmol (7.9 Ci/mmol) and a total activity of 850 MBq (23 mCi). The solution of 1% A01 (10 mg/mL) was prepared similarly as in the IOP study (see Table 1) except that the solution contained also 72 μg/mL of [^3H]–A01 (specific activity 27.21 mCi/mg). The solution was prepared freshly for each experiment.
Seven μL of A01 solution (10 mg/mL including 72 μg/mL of ^3H–A01) was topically applied to both eyes of albino and pigmented rats. Rats were euthanized with carbon dioxide and cervical dislocation. The eyes (n = 4) of albino rats were collected 0.5, 2, 4, and 7 h after treatment. The eyes of pigmented rats were dissected 0.5, 2, 4, 7, 24, 48, 72, 144, and 240 h after eye drop instillation. The eyes were enucleated and dissected immediately after euthanasia. Iris-ciliary body was dissected, snap frozen on dry ice, and stored at −80 °C until analysis. The analyses were conducted within 24 h from tissue dissection.
Bound and unbound radioactivity of tritiated A01 was determined from dissected iris-ciliary body samples. First, the tissues were mechanically homogenized and diluted with 0.9% sodium chloride (weight ratio 35:1). Then, cellular unbound A01 was released from the iris-ciliary body cells by freezing and thawing the solutions three times with dry ice and a water bath (37 °C). Thereafter, the supernatant and pellet were separated by centrifuging the samples for 10 min at 13,000 rpm. The pellets were dissolved by using 60 min incubation in 100 μL of Solvable (PerkinElmer, Waltham, MA, USA). The samples were then bleached with 10 μL of hydrogen peroxide for 30 min. The pellet volume was calculated as the difference between the total and supernatant volumes.
After subtracting the background radioactivity, the measured net counts per minute (cpm) were converted to disintegrations per minute (dpm) taking into account color quenching and device efficiency. Standard curves were generated for each matrix (albino and pigmented supernatants and pellets; Appendix Figure 1). […] Signal to noise ratios of measured pellet and supernatant samples in liquid scintillation counting are shown in Appendix Table 3.

[3] = system: albino rabbits (New Zealand White); experiment: IOP study in albino rabbits after single eye drop; assay type: in vivo, rabbit; settings: single 25 μL eye drop; CAI 0.5 or 1.0%, dorzolamide 2%; n = 5
Procedure: Five 3–5 months old albino (New Zealand White, all females) and five 3–6 months old pigmented rabbits (Chinchilla Bastard, 1 male and 4 females) were purchased from Charles River Laboratories, UK and Germany, respectively. Prior to the experiments, the rabbits were habituated to handling, and the baseline values of IOP were measured. During the experiments, rabbits weighed 2.4–4.0 kg.
First, stock solutions of CAIs (250 mg/mL) in dimethyl sulfoxide (Sigma-Aldrich, Germany) were prepared. These stock solutions were diluted with PBS (pH 7.4) to obtain 1 mg/mL (0.1%) or 10 mg/mL (1%) solutions. Water-solubility of the compounds was enhanced with 2-hydroxypropyl-β-cyclodextrin (Sigma-Aldrich, Germany) (Table 1).
The CAI solutions were tested in albino rabbits (eye drops of 0.1, and 0.5 or 1.0%) and in pigmented rabbits (0.5 or 1.0%). The novel CAI concentrations in solutions were determined based on the drug solubility with the aim to load the highest possible drug concentration to the single eye drop.
The IOP levels in the rabbits were measured with a tonometer (Tonometer Pro, Icare Finland Ltd.). After baseline IOP measurements, a single eye drop (25 μL) was applied to the left eye, whereas the right eye was not treated. After eye drop instillation, the eyelids were kept open manually for 1 min. The IOP was measured from both eyes of the rabbits at 0.5, 1, 2, 3, 4, 5, 6, 7, and 8 h after eye drop instillation. In the case of the pigmented rabbits, the measurements were continued until 10 h postinstillation, and further until the IOP had returned to the normal baseline.
The CAIs were tested in the same rabbits to minimize interindividual data variation. Washout periods of at least 3 days were used between instillation of different compounds. The experiments started always at 8 a.m. to eliminate bias due to diurnal IOP fluctuation. At each time point, the pressure was measured three times with the same eye, and the average values were calculated and used in data analysis.

[4] = iris-ciliary body, single topical eye drop

Melanin binding classification ([1]; class by Kd): high (high (<65 μM))
Kd ([1]; melanin nanoparticles 0.5 mg/mL, IF or MST mode, 68% confidence, read-out: Kd ± confidence (melanin binding)): 48 ± 13 µM
concentration at 4 h ([2]; RccHan/Wist (albino), rat, topical, 7 µL of 10 mg/mL solution per eye, albino iris-ciliary body, 4 h, read-out: free concentration by 4 h): ~50 ng/g
tmax (bound drug) ([2]; albino eyes): 2 h
tmax(total drug) ([2]; albino eyes): 2 h
bound concentrations ([2]; albino iris-ciliary body): < 0.05 ng/mg
bound fraction ([2]; albino iris-ciliary body): below 10%
total concentration after decline ([2]; albino iris-ciliary body): ≈ 0.05 ng/mg
Cmax,unbound ([2]; albino iris-ciliary body, 2 h postdosing): 0.50 ng/mg
Cmax, total A01 concentration (bound + unbound) ([2]; albino iris-ciliary body, 2 h postdosing, 7 μL eye drop 10 mg/mL): 0.54 ng/mg
AUC0-last in albino tissues, bound A01 [2, 4]: 0.09 (ng/mg) × h
AUC0-last in albino tissues, total A01 [2, 4]: 1.37 (ng/mg) × h
AUC0-last in albino tissues, unbound A01 [2, 4]: 1.29 (ng/mg) × h
Compound: C/C(=N\Nc1ccc(S(N)(=O)=O)cc1)c1cccnc1 [A01]
AUC0-last ± SD in albino rabbits (IOP decrease vs time) [3]: 19.95 ± 7.16 mmHg x h
